Common to all, as to assay type: cell-based, human
The test system of one assay is C9-C4. Description: Gene expression analysis using GeneChip in E7070-resistant strain C9-C4. As to conditions: resistant strain C9-C4, 8 μM, 12 hours. The protocol: The fragmented cRNA was hybridized with GeneChip Hu6800 (Affymetrix) in 100 mM MES, 1 M sodium salt, 20 mM EDTA and 0.01% Tween 20 at 45° C. for 16 hours. After the hybridization, the GeneChip was washed and stained according to the protocol EukGE-WS2 attached to Affymetrix Fluidics Station. For the staining, streptavidin-phycoerythrin and biotinylated goat anti-streptavidin antibody were used. The stained GeneChip was scanned by using HP Argon Ion Laser Confocal Scanner (Hewlett Packard) to measure its fluorescence intensity. The fluorescence was measured at 570 nm by using an excitation light at 488 nm. The quantitative data analyses were all conducted by using GeneChip Software (Affymetrix). To quantify RNA, an average of “differences [(Perfect match hybridization signal)−(Mismatch signal)]” was obtained for each probe family. […] Two kinds of E7070-resistant strains (C9-C1 and another resistant strain (C9-C4) obtained in the same method as C9-C1) were treated with 8 μM of E7070 for 12 hours in the same manner as described above, and variations of the gene expression were analyzed by using GeneChip for the genes listed in Tables 1 and 2.

Assay [1] deals with HCT116-C9-C1. Description: Gene expression analysis by quantitative PCR. Particulars: resistant strain HCT116-C9-C1, 8 μM, 0-12 hours, FIG. 4. The protocol: (§1) E7070, or ER-35748 or ER-68487 represented by the structural formula shown below was added to the media of an E7070-susceptible strain HCT116-C9 and an E7070-resistant strain HCT116-C9-C1 at a concentration of 8 μM and the cells were cultured. Then, cells were recovered after 0, 3, 6 and 12 hours. Further, the cells were also cultured for 12 hours without adding the drug and recovered. In order to confirm that variations in gene expression obtained in Example 2 reflected the susceptibility of a tumor cell to E7070, changes of gene expression in E7070-susceptible cells and E7070-resistant cells were examined by quantitative PCR using RNA shown in Example 1, SYBR Green and ABI Prism 7700 Sequence Detection System (Perkin-Elmer Applied Biosystems). The operation was performed in two steps of a reverse transcription reaction and PCR reaction. […] The mRNA level in each specimen was quantified by measuring fluorescence intensity. In comparison of two or more specimens, quantitative values were corrected based on the mRNA level of GAPDH in each specimen. The relationships between the drug treatment time and each mRNA level are shown in FIGS. 2 to 5, where the quantified value at 0 hour after the drug treatment was used as a control (100%).

Another assay has as its system HCT116-C9. Kind of assay: Gene expression analysis by quantitative PCR. As to conditions: susceptible strain HCT116-C9, 8 μM, 0-12 hours, FIG. 2. On the procedure:
as §1

Assay [2] deals with HCT116-C9-C1. Description: Gene expression analysis using GeneChip in E7070-resistant strain C9-C1. Particulars: resistant strain C9-C1, 8 μM, 12 hours. The protocol: E7070, or ER-35748 or ER-68487 represented by the structural formula shown below was added to the media of an E7070-susceptible strain HCT116-C9 and an E7070-resistant strain HCT116-C9-C1 at a concentration of 8 μM and the cells were cultured. Then, cells were recovered after 0, 3, 6 and 12 hours. Further, the cells were also cultured for 12 hours without adding the drug and recovered. Total RNA was extracted from these cells and subjected to the subsequent analyses. […] The stained GeneChip was scanned by using HP Argon Ion Laser Confocal Scanner (Hewlett Packard) to measure its fluorescence intensity. The fluorescence was measured at 570 nm by using an excitation light at 488 nm. The quantitative data analyses were all conducted by using GeneChip Software (Affymetrix). To quantify RNA, an average of “differences [(Perfect match hybridization signal)−(Mismatch signal)]” was obtained for each probe family. […] Two kinds of E7070-resistant strains (C9-C1 and another resistant strain (C9-C4) obtained in the same method as C9-C1) were treated with 8 μM of E7070 for 12 hours in the same manner as described above, and variations of the gene expression were analyzed by using GeneChip for the genes listed in Tables 1 and 2.

For the compound `NS(=O)(=O)c1ccc(S(=O)(=O)Nc2cccc3c(Cl)c[nH]c23)cc1` [E7070, N-(3-chloro-7-indolyl)-1,4-benzenedisulfonamide], the “variations of the gene expression for the genes listed in Tables 1 and 2” value with C9-C4 and with HCT116-C9-C1 [2] was “no gene that increased or decreased 1.8 times or more was observed” in each case. In addition, the “mRNA level variation of S80343, U07919, U11791, M95809, U18291, U63743, M61764 (corrected by GAPDH)” value in the assay with HCT116-C9-C1 [1] is “no expression variation was observed”; in the assay with HCT116-C9 it was “largest expression variation”.

Values taken from patent US7445892B2, “Method of testing anticancer agent-sensitivity of tumor cells” (Eisai Co., Ltd., priority 2000, dated 2008).
